Data on one substance can be found in US20250034264A1, “REGULATING T CELL IMMUNE RESPONSE THROUGH IGF-I RECEPTOR (IGF-1R)” (The Regents of the University of Michigan, priority 2021, published 2025).

What all share (type): cell-based, human
Experiment [1] concerns fibrocyte-adherent CD4+ T cells. Kind of experiment: IL-17A and INFγ in fibrocyte-adherent CD4+ T cells (flow cytometry). As for the experimental part:
(§1) Invariably, a small population of tightly adherent T cells were found in the fibrocyte cultures, consistent with the previous findings. Culture viability was routinely verified to be >90%. CD4^+ T cells were enriched using the CD4 isolation cocktail (Cat #0.130-096-533, Miltenyi Biotec, San Diego, CA) followed by negative selection using a magnetic column (Cat #0.130-042-401) according to manufacturer's protocol. Fibrocytes and isolated T cells were cultured and remained untreated or were incubated with human IgG isotype control (5 μg/ml) or teprotumumab (50 μg/mL) for 7 to 9 days. Single cell suspensions were stained with anti-human CD4, CD3, CD34, MHC-2, CD80, CD86, and PD-L1 (BD Biosciences) for 30 min, rinsed and fixed with CytoPerm/CytoFix (BD). They were then stained with anti-human INFγ and IL-17A for 20 min, rinsed, and subjected to the flow cytometry analysis. Gated CD34^+CXCR4^+ fibrocytes and CD4^+CD3^+ T cells were analyzed using quadrant settings based on negative isotype staining.
(§2) In vitro studies of CD34^+ fibrocytes and T cells PBMC and GD-OF monolayers were treated in vitro with human IgG isotype control (5 μg/ml), teprotumumab (50 μg/mL), H7 (5 μg/mL), linsitinib (1 μM), bTSH (5 mIU/mL), M22 (1 μg/mL), or IGF-1 (10 nM) for the intervals indicted in the figure legends in a 37° C., 5% CO2, humidified incubator until confluent. Brefeldin A (0.66 μl/ml), (Golgi Stop™, BD Biosciences), phorbol 12-myristate 13-acetate (PMA) (50 ng/ml) and ionomycin (1 μg/mL) were added for 5 h. Cells were rinsed with flow cytometry buffer (1×PBS, 0.5% BSA, 0.1% sodium azide) and stained with the relevant monoclonal antibodies.

In experiment [2] the test system is purified, isolated cultured CD3+CD4+ T cells. Kind of experiment: IL-17A and INFγ in purified, isolated cultured T cells (flow cytometry). As to the method: as §1, §2
Experiment [3] deals with fibrocytes. Kind of experiment: RNA Pol II ChIP transcription assay. The settings on record: 50 μg/mL. As for the experimental part:
RNA Pol II ChIP transcription assay Transcriptional assays were performed using the method of Wells and Farnham (Methods (San Diego, Calif.) 26, 48-56(2002). Confluent cultures were treated with human Isotype IgG or teprotumumab (50 μg/mL) in DMEM with 10% FBS for 3 d, rinsed, and shifted to DMEM with 1% FBS for 16 h with the respective additives, and then treated without or with bTSH (5 mU/mL) for 2 h. Cross-linked protein/DNA and isolated chromatin fragments were immunoprecipitated with target antibodies: anti-HLA-DPB1 [EPR11226] (cat. #abl57210), anti-CD80 [EPR22183] (cat. #ab225674), anti-CD86 [EPR21962] (cat. #ab239075), and anti-PD-L1 [EPR19759](cat. #ab213524),) from Abcam (Cambridge, MA) using the Pierce™ Agarose Chip Kit (Thermo Scientific, cat #26156). Eluted fractions were reverse cross-linked and isolated DNA subjected to RT-PCR using EpiTect ChIP qPCR Primer Assay for human HLA-DRA (cat. #GPH1011269(-)02A, HLA-DRB1 (cat. #GPH1024837(-)02A), CD80 (cat. #GPH1023189(-)02A), CD86 (cat. #GPH1009502(-)02A), PD-L1 (cat. #GPH1012902(-)02A, Qiagen. GAPDH served as the housekeeping gene and values were generated according to the protocol provided by the supplier.

A further experiment deals with GD-OF. Kind of experiment: HAS1 and HAS2 mRNA, real-time PCR. The settings on record: teprotumumab 50 μg/ml or linsitinib 1 μM, 7-9 d. As to the method: (§3) FIGS. 13A-13B are graphs showing the effect of teprotumumab on bTSH induced hyaluronan (HA) production in GD-OF (FIG. 13A) and fibrocytes (FIG. 13B). GD-OF were treated with or without teprotumumab (50 μg/ml) or human Isotype IgG (5 μg/ml) for 7-9 d and stimulated with bTSH (5 mIU/mL) for graded intervals indicated along the abscissa for 0 to 96h. Media were collected and subjected to HA ELISA. Values were normalized to respective cell layer protein levels and expressed as the mean±SD of three independent determinations. Experiments were repeated three times. FIGS. 13C-13F are graphs showing the divergent pattern of hyaluronan synthase (HAS) isoenzyme induction by bTSH in fibrocytes versus GD-OF and effects of teprotumumab (FIGS. 13C and 13D) and linsitinib (FIGS. 13E and 13F). Confluent monolayers of GD-OF and fibrocytes remained untreated or received teprotumumab (50 μg/ml) or linsitinib (1 μM) and human Isotype IgG for 7-9 d. Some cultures were treated with bTSH (5 mIU/mL) for 6h. Cellular RNA was harvested mRNA was reverse transcribed, and cDNA subjected to quantitative real-time PCR for HAS1 and HAS2. Values were normalized to their respective GAPDH levels and are expressed as the mean±SD of three independent determinations. Experiments were repeated three times. *, P<0.05; **, p<0.01; ***. P<0.001.
(§4) Real-time PCR Confluent fibrocyte and GD-OF cultures were incubated with bTSH (5 mIU/mL), teprotumumab (50 μg/mL) or linsitinib (1 μM) for the time intervals indicated, washed with PBS and RNA was extracted with the Aurum Total RNA Mini Kit (cat. #732-6820, Bio-Rad, Hercules, CA). Cellular RNA (2 μg) was reverse transcribed using QuantiTect Reverse Transcription kit (cat. #205314, Qiagen (Germantown, MD) and real-time PCR was performed using an Applied Biosystems instrument with QuantiTect SYBR Green PCR kit (cat. no. 204143; Qiagen, Frederick, MD). Primer sequences were as follows.

Experiment [4] has as its system fibrocytes. Kind of experiment: HAS1 and HAS2 mRNA, real-time PCR. Particulars: teprotumumab 50 μg/ml or linsitinib 1 μM, 7-9 d. As to the method:
as §3, §4
On the technique in general: Quantitative PCR measures a nucleic acid by following its amplification.

With teprotumumab, the “INFγ MFI” value worked out at 26.80±5.61 in experiment [1] (50 μg/mL, 9 d, control MFI 64.01±10.15) and 10.32±0.89 in experiment [2] (50 μg/mL, 9 d, control 10.23±0.99). Also, the “IL-17A MFI” value turned out to be 65.17±5.61 in experiment [1] (50 μg/mL, 9 d, control isotype MFI 76.03±14.17) and 12.69±0.31 in experiment [2] (50 μg/mL, 9 d, control isotype MFI 12.69±0.19). Moreover, the “abundance of adherent CD3+CD4+ T cells” value in experiment [1] (cultures from both donor cohorts) was “substantially reduced”. Besides, the “effect on cytokine (IL-17A, INFγ) expression levels” value in experiment [2] (purified T cells without fibrocytes) is listed as “no such effects”. In the experiment with fibrocytes [3], the “basal and bTSH-induced transcription of MHC II, CD80, CD86, PD-L1 genes” value is “attenuated”. Moreover, the “HAS2 expression, single agent or in combination with bTSH” value in the experiment on GD-OF and with fibrocytes [4] was “induced” each time. In addition, the “basal and bTSH-provoked expression of HAS1” value in the experiment with GD-OF and with fibrocytes [4] was “inhibited” each time.
